Values quoted from earlier work in patent US8167920B2, “Intranasal delivery of compounds that reduce intrancranial pressure” (Codman & Shurtleff, Inc., priority 2006, dated 2012).

Legend:
[1] = tested on: mesenteries (lymphatic pump); conditions: 15 minutes superfusion of 30 uM into the mesenteries
[2] = tested on: rat mesenteric lymphatics

Compound | increase in lymphatic pump flow index [1] | inhibition of the active lymph pump [2]
COC(=O)[C@@H](N)CCCNC(=N)N[N+](=O)[O-] [L-NAME] | ~40% | –
OO [hydrogen peroxide] | – | intense inhibition
